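Each compound was tested at five concentrations against cells in 96-well plates for 48 hours. TGI: concentration producing complete growth inhibition.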
Columns and labels:
Experiment in all cases: NCI-60 cell line screen, 48 h
[1] = test system: SNB-19 CNS
[2] = test system: T-47D breast
[3] = test system: UACC-257 melanoma
[4] = test system: MCF7 breast
[5] = test system: TK-10 renal
[6] = test system: BT-549 breast
[7] = test system: HCT-15 colon
[8] = test system: 786-0 renal
[9] = test system: SF-539 CNS
[10] = test system: A549 NSCLC

SMILES | TGI [1] [µM] | TGI [2] [µM] | TGI [3] [µM] | TGI [4] [µM] | TGI [5] [µM] | TGI [6] [µM] | TGI [7] [µM] | TGI [8] [µM] | TGI [9] [µM] | TGI [10] [µM]
CN(C(=O)C12C3C4(C(=O)O)C1(C(=O)N(C)C(C)(C)C)C1C2(C(=O)O)C3(C(=O)N(C)C(C)(C)C)C14C(=O)N(C)C(C)(C)C)C(C)(C)C (centres undefined) | > 100 | > 100 | > 100 | > 100 | > 100 | > 100 | > 100 | > 100 | > 100 | > 100
COC(=O)c1c(OC(C)=O)ccc2c1c1c(OC(C)=O)c3ccccc3c(OC(C)=O)c1n2Cc1cc(OC)cc(OC)c1 | > 100 | 48.9 | > 100 | > 100 | > 100 | 82.1 | > 100 | > 100 | 9.27 | > 100
Nc1ccc2c(c1)C1Oc3ccccc3CC1CO2 (centres undefined) | – | > 100 | > 100 | > 100 | > 100 | > 100 | 35.6 | > 100 | > 100 | > 100
O=C(O)Cc1ccc(Oc2nc3ccccc3nc2-c2cccs2)cc1 | > 100 | 63.6 | > 100 | > 100 | > 100 | > 100 | > 100 | > 100 | > 100 | > 100
COc1ccc(/C=N\N2CC(=O)N3C4C=CC(CC4)N3C2=O)cc1 (centres undefined) | > 100 | > 100 | > 100 | > 100 | > 100 | > 100 | > 100 | > 100 | > 100 | > 100
O=C(CCc1cccc(O)c1)NCCc1cccc(O)c1 | > 100 | > 100 | > 100 | > 100 | > 100 | > 100 | > 100 | > 100 | > 100 | > 100
COc1c2occc2c(OC)c2c(=O)c(S(=O)(=O)NC(=O)Nc3ccc(Cl)cc3)coc12 | > 10 | > 10 | > 10 | > 10 | > 10 | > 10 | > 10 | > 10 | > 10 | > 10
Cc1cc(NS(=O)(=O)c2ccc(NC(=O)c3ccc4nc5ccccc5c(Nc5ccc(S(=O)(=O)N=C(N)N)cc5)c4c3)cc2)no1 | 94.3 | 34.4 | 67.1 | 36.4 | 41.4 | 46 | 29.3 | 30.6 | 44.9 | 31.4

Reference: PubChem BioAssay (NCI)
